Experimental data from patent publication US6706663B2, “Herbicidal 3-heterocyclic substituted benzisothiazole and benzisoxazole compounds” (Wyeth, priority 2000, dated 2004).

Legend:
[1] = tested on: ABUTH (Abutilon theophrasti); test: Postemergence herbicidal evaluation; format: in vivo, Medic.; conditions: postemergence
Outline: (§1)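 Seedlings grown about two weeks in flats, sprayed, then kept under standard greenhouse care. Rated visually 4–5 weeks after treatment on a 0–9 scale (stand, vigour, malformation, size, chlorosis, overall appearance) relative to untreated control; repeat tests averaged.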

[2] = tested on: AMBEL (Ambrosia artemisifolia); test: Postemergence herbicidal evaluation; format: in vivo, L.; conditions: postemergence
Outline: as §1

[3] = tested on: CASOB (Cassia obtusifolia); test: Postemergence herbicidal evaluation; format: in vivo, L.; conditions: postemergence
Outline: as §1

[4] = tested on: CHEAL (Chenopodium album); test: Postemergence herbicidal evaluation; format: in vivo, L.; conditions: postemergence
Outline: as §1

[5] = tested on: GALAP (Galium aparine); test: Postemergence herbicidal evaluation; format: in vivo; conditions: postemergence
Outline: as §1

[6] = tested on: IPOHE (Ipomoea hederacea); test: Postemergence herbicidal evaluation; format: in vivo, (L.) Jacq.; conditions: postemergence
Outline: as §1

[7] = tested on: ECHCG (Echinochloa crus-galli); test: Postemergence herbicidal evaluation; format: in vivo, (L.) Beau; conditions: postemergence
Outline: as §1

[8] = tested on: GLXMAW (Soybean, Williams); test: Postemergence herbicidal evaluation; format: in vivo, Glycine max, (L.) Merr. cv Williams; conditions: postemergence
Outline: as §1

[9] = tested on: ORYSAT (Rice, Tebonnet); test: Postemergence herbicidal evaluation; format: in vivo, Oryza sativa, (L.) Tebonnet; conditions: postemergence
Outline: as §1

[10] = tested on: TRZAWR (Wheat, Winter, cv Riband); test: Postemergence herbicidal evaluation; format: in vivo, Triticum aestivum; conditions: postemergence
Outline: as §1

[11] = tested on: ZEAMX (Corn, Field); test: Postemergence herbicidal evaluation; format: in vivo, Zea mays, L.; conditions: postemergence
Outline: as §1

[12] = tested on: ABUTH (Abutilon theophrasti); test: Preemergence herbicidal evaluation; format: in vivo, Medic.; conditions: preemergence, rated 4-5 weeks after treatment
[13] = tested on: AMBEL (Ambrosia artemisifolia); test: Preemergence herbicidal evaluation; format: in vivo, L.; conditions: preemergence, rated 4-5 weeks after treatment
Outline: (§2)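 Scores (0–9) reflect visual comparison with control plants for stand, vigor, malformation, size and chlorosis. Seeds in potting soil received a post-planting spray of compound in aqueous acetone and grew in a greenhouse until assessment 4–5 weeks later.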

[14] = tested on: GALAP (Galium aparine); test: Preemergence herbicidal evaluation; format: in vivo; conditions: preemergence, rated 4-5 weeks after treatment
Outline: as §2

[15] = tested on: IPOHE (Ipomoea hederacea); test: Preemergence herbicidal evaluation; format: in vivo, (L.) Jacq.; conditions: preemergence, rated 4-5 weeks after treatment
[16] = tested on: ECHCG (Echinochloa crus-galli); test: Preemergence herbicidal evaluation; format: in vivo, (L.) Beau; conditions: preemergence, rated 4-5 weeks after treatment
Outline: as §2

[17] = tested on: GLXMA (Soybean); test: Preemergence herbicidal evaluation; format: in vivo, Glycine max, (L.) Merr.; conditions: preemergence, rated 4-5 weeks after treatment
[18] = tested on: ZEAMX (Corn, Field); test: Preemergence herbicidal evaluation; format: in vivo, Zea mays, L.; conditions: preemergence, rated 4-5 weeks after treatment
[19] = tested on: ECHORC (Echinochloa oryzoides); test: Flooded paddy, preemergence weed control; format: in vivo, Echinochloa oryzoides (Ard.) Fritsch.; conditions: rated 3-4 weeks after treatment, 0-9 rating scale
Outline: (§3)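 In this preemergence paddy assay, weed seeds or organs are sown at up to 0.5 cm in silt loam and covered by 1.5–3 cm of water for the full test period. After treatment the pots are kept in a greenhouse, and herbicidal effect is rated 0-9 visually against a control.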

[20] = tested on: CYPIR (Cyperus iria); test: Flooded paddy, preemergence weed control; format: in vivo; conditions: rated 3-4 weeks after treatment, 0-9 rating scale
Outline: as §3

[21] = tested on: MOOVA (Monochoria vaginalis); test: Flooded paddy, preemergence weed control; format: in vivo, Presl.; conditions: rated 3-4 weeks after treatment, 0-9 rating scale
Outline: as §3

[22] = tested on: SAGPY (Sagittaria pygmaea); test: Flooded paddy, preemergence weed control; format: in vivo, L.; conditions: rated 3-4 weeks after treatment, 0-9 rating scale
Outline: as §3

[23] = tested on: ORYSAT (Rice, Tebonnet); test: Flooded paddy, post-transplant rice tolerance; format: in vivo, Oryza sativa, (L.) Tebonnet
Outline: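 Scores (0-9) reflect visual injury relative to untreated plants in flooded silt loam. Each pot held two transplanted ten-day-old seedlings under 1.5 to 3 cm standing water in the greenhouse.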

1-methyl-3-[3-(4-oxo-delta-2-1,2,5-thiadiazolin-3-yl)-1,2-benzisothiazol-5-yl]-6-(trifluoromethyl)uracil S′,S′-dioxide [Compound 92]
ABUTH herbicidal rating ([1]; rate 0.0320 kg/ha): 6.0
ABUTH herbicidal rating ([1]; rate 0.0620 kg/ha): 7.0
ABUTH herbicidal rating ([1]; rate 0.1250 kg/ha): 9.0
AMBEL herbicidal rating ([2]; rate 0.0320 kg/ha): 3.0
AMBEL herbicidal rating ([2]; rate 0.0620 kg/ha): 5.0
AMBEL herbicidal rating ([2]; rate 0.1250 kg/ha): 6.0
CASOB herbicidal rating ([3]; rate 0.0320 kg/ha): 4.0
CASOB herbicidal rating ([3]; rate 0.0620 kg/ha): 5.0
CASOB herbicidal rating ([3]; rate 0.1250 kg/ha): 5.0
CHEAL herbicidal rating ([4]; rate 0.0320 kg/ha): 3.0
CHEAL herbicidal rating ([4]; rate 0.0620 kg/ha): 6.0
CHEAL herbicidal rating ([4]; rate 0.1250 kg/ha): 6.0
GALAP herbicidal rating ([5]; rate 0.0320 kg/ha): 2.0
GALAP herbicidal rating ([5]; rate 0.0620 kg/ha): 3.0
GALAP herbicidal rating ([5]; rate 0.1250 kg/ha): 4.0
IPOHE herbicidal rating ([6]; rate 0.0320 kg/ha): 6.0
IPOHE herbicidal rating ([6]; rate 0.0620 kg/ha): 8.0
IPOHE herbicidal rating ([6]; rate 0.1250 kg/ha): 8.0
ECHCG herbicidal rating ([7]; rate 0.0320 kg/ha): 2.0
ECHCG herbicidal rating ([7]; rate 0.0620 kg/ha): 3.0
ECHCG herbicidal rating ([7]; rate 0.1250 kg/ha): 4.0
GLXMAW herbicidal rating ([8]; rate 0.0320 kg/ha): 5.0
GLXMAW herbicidal rating ([8]; rate 0.0620 kg/ha): 5.0
GLXMAW herbicidal rating ([8]; rate 0.1250 kg/ha): 5.5
ORYSAT herbicidal rating ([9]; rate 0.0320 kg/ha): 1.0
ORYSAT herbicidal rating ([9]; rate 0.0620 kg/ha): 1.0
ORYSAT herbicidal rating ([9]; rate 0.1250 kg/ha): 1.0
TRZAWR herbicidal rating ([10]; rate 0.0320 kg/ha): 1.0
TRZAWR herbicidal rating ([10]; rate 0.0620 kg/ha): 1.5
TRZAWR herbicidal rating ([10]; rate 0.1250 kg/ha): 1.5
ZEAMX herbicidal rating ([11]; rate 0.0320 kg/ha): 2.0
ZEAMX herbicidal rating ([11]; rate 0.0620 kg/ha): 2.5
ZEAMX herbicidal rating ([11]; rate 0.1250 kg/ha): 3.0
Preemergence herbicidal rating ABUTH ([12]; rate 0.0620 kg/ha): 0.0
Preemergence herbicidal rating ABUTH ([12]; rate 0.1250 kg/ha): 0.0
Preemergence herbicidal rating ABUTH ([12]; rate 0.2500 kg/ha): 3.0
Preemergence herbicidal rating AMBEL ([13]; rate 0.0620 kg/ha): 0.0
Preemergence herbicidal rating AMBEL ([13]; rate 0.1250 kg/ha): 0.0
Preemergence herbicidal rating AMBEL ([13]; rate 0.2500 kg/ha): 0.0
Preemergence herbicidal rating GALAP ([14]; rate 0.0620 kg/ha): 0.0
Preemergence herbicidal rating GALAP ([14]; rate 0.1250 kg/ha): 0.0
Preemergence herbicidal rating GALAP ([14]; rate 0.2500 kg/ha): 2.0
Preemergence herbicidal rating IPOHE ([15]; rate 0.0620 kg/ha): 0.0
Preemergence herbicidal rating IPOHE ([15]; rate 0.1250 kg/ha): 0.0
Preemergence herbicidal rating IPOHE ([15]; rate 0.2500 kg/ha): 4.0
Preemergence herbicidal rating ECHCG ([16]; rate 0.0620 kg/ha): 0.0
Preemergence herbicidal rating ECHCG ([16]; rate 0.1250 kg/ha): 0.0
Preemergence herbicidal rating ECHCG ([16]; rate 0.2500 kg/ha): 0.0
Preemergence herbicidal rating GLXMA ([17]; rate 0.0620 kg/ha): 0.0
Preemergence herbicidal rating GLXMA ([17]; rate 0.1250 kg/ha): 0.0
Preemergence herbicidal rating GLXMA ([17]; rate 0.2500 kg/ha): 0.0
Preemergence herbicidal rating ZEAMX ([18]; rate 0.0620 kg/ha): 0.0
Preemergence herbicidal rating ZEAMX ([18]; rate 0.1250 kg/ha): 0.0
Preemergence herbicidal rating ZEAMX ([18]; rate 0.2500 kg/ha): 0.0
ECHORC herbicidal rating ([19]; rate 0.0320 kg/ha): 0.0
ECHORC herbicidal rating ([19]; rate 0.1250 kg/ha): 0.0
CYPIR herbicidal rating ([20]; rate 0.0320 kg/ha): 0.0
CYPIR herbicidal rating ([20]; rate 0.1250 kg/ha): 8.0
MOOVA herbicidal rating ([21]; rate 0.0320 kg/ha): 0.0
MOOVA herbicidal rating ([21]; rate 0.1250 kg/ha): 8.0
SAGPY herbicidal rating ([22]; rate 0.0320 kg/ha): 0.0
SAGPY herbicidal rating ([22]; rate 0.1250 kg/ha): 0.0
ORYSAT herbicidal rating (transplanted rice tolerance) ([23]; in vivo): 0.0

COC1(c2nsc3ccc(-n4c(=O)cc(C(F)(F)F)n(C)c4=O)cc23)N=C(N(C)C)NC1=O (stereo not shown) [Compound 93, 3-[3-[2-(dimethylamino)-4-methoxy-5-oxo-2-imidazolin-4-yl]-1,2-benzisothiazol-5-yl]-1-methyl-6-(trifluoromethyl)uracil]
ABUTH herbicidal rating ([1]; rate 0.0320 kg/ha): 9.0
ABUTH herbicidal rating ([1]; rate 0.0620 kg/ha): 9.0
AMBEL herbicidal rating ([2]; rate 0.0320 kg/ha): 9.0
AMBEL herbicidal rating ([2]; rate 0.0620 kg/ha): 9.0
CASOB herbicidal rating ([3]; rate 0.0320 kg/ha): 7.0
CASOB herbicidal rating ([3]; rate 0.0620 kg/ha): 9.0
CHEAL herbicidal rating ([4]; rate 0.0320 kg/ha): 9.0
CHEAL herbicidal rating ([4]; rate 0.0620 kg/ha): 9.0
GALAP herbicidal rating ([5]; rate 0.0320 kg/ha): 9.0
GALAP herbicidal rating ([5]; rate 0.0620 kg/ha): 9.0
IPOHE herbicidal rating ([6]; rate 0.0320 kg/ha): 9.0
IPOHE herbicidal rating ([6]; rate 0.0620 kg/ha): 9.0
ECHCG herbicidal rating ([7]; rate 0.0320 kg/ha): 9.0
ECHCG herbicidal rating ([7]; rate 0.0620 kg/ha): 9.0
GLXMAW herbicidal rating ([8]; rate 0.0320 kg/ha): 9.0
GLXMAW herbicidal rating ([8]; rate 0.0620 kg/ha): 9.0
ORYSAT herbicidal rating ([9]; rate 0.0320 kg/ha): 4.0
ORYSAT herbicidal rating ([9]; rate 0.0620 kg/ha): 8.0
TRZAWR herbicidal rating ([10]; rate 0.0320 kg/ha): 5.5
TRZAWR herbicidal rating ([10]; rate 0.0620 kg/ha): 7.5
ZEAMX herbicidal rating ([11]; rate 0.0320 kg/ha): 5.5
ZEAMX herbicidal rating ([11]; rate 0.0620 kg/ha): 5.5
Preemergence herbicidal rating ABUTH ([12]; rate 0.0620 kg/ha): 9.0
Preemergence herbicidal rating ABUTH ([12]; rate 0.1250 kg/ha): 9.0
Preemergence herbicidal rating ABUTH ([12]; rate 0.2500 kg/ha): 9.0
Preemergence herbicidal rating AMBEL ([13]; rate 0.0620 kg/ha): 4.0
Preemergence herbicidal rating AMBEL ([13]; rate 0.1250 kg/ha): 7.0
Preemergence herbicidal rating AMBEL ([13]; rate 0.2500 kg/ha): 9.0
Preemergence herbicidal rating IPOHE ([15]; rate 0.0620 kg/ha): 3.0
Preemergence herbicidal rating IPOHE ([15]; rate 0.1250 kg/ha): 9.0
Preemergence herbicidal rating IPOHE ([15]; rate 0.2500 kg/ha): 9.0
Preemergence herbicidal rating ECHCG ([16]; rate 0.0620 kg/ha): 0.0
Preemergence herbicidal rating ECHCG ([16]; rate 0.1250 kg/ha): 0.0
Preemergence herbicidal rating ECHCG ([16]; rate 0.2500 kg/ha): 4.0
Preemergence herbicidal rating GLXMA ([17]; rate 0.0620 kg/ha): 4.0
Preemergence herbicidal rating GLXMA ([17]; rate 0.1250 kg/ha): 6.0
Preemergence herbicidal rating GLXMA ([17]; rate 0.2500 kg/ha): 7.0
Preemergence herbicidal rating ZEAMX ([18]; rate 0.0620 kg/ha): 0.0
Preemergence herbicidal rating ZEAMX ([18]; rate 0.1250 kg/ha): 0.0
Preemergence herbicidal rating ZEAMX ([18]; rate 0.2500 kg/ha): 0.0
ECHORC herbicidal rating ([19]; rate 0.0320 kg/ha): 0.0
ECHORC herbicidal rating ([19]; rate 0.1250 kg/ha): 6.0
CYPIR herbicidal rating ([20]; rate 0.0320 kg/ha): 0.0
CYPIR herbicidal rating ([20]; rate 0.1250 kg/ha): 9.0
MOOVA herbicidal rating ([21]; rate 0.0320 kg/ha): 0.0
MOOVA herbicidal rating ([21]; rate 0.1250 kg/ha): 9.0
SAGPY herbicidal rating ([22]; rate 0.0320 kg/ha): 0.0
SAGPY herbicidal rating ([22]; rate 0.1250 kg/ha): 9.0
ORYSAT herbicidal rating (transplanted rice tolerance) ([23]; flooded paddy, post-transplant rice, rate 0.1250 kg/ha, rated 3-4 weeks after treatment, 0-9 rating scale): 8.0
